pIC50: −log10 of the molar value. Activity calls are given as the source filed them. The calls are words filed in the database; no cut-off is given here.
How the values were obtained:
[1] = target: T1, LgtC (Neisseria meningitidis) (UniProt Q93EK7); test: Inhibition of Neisseria meningitidis LgtC at 50 uM using UDP-Gal donor substrate incubated for 20 mins by malachite green reagent based colorimetric method relative to control
T1 sequence (whole entry): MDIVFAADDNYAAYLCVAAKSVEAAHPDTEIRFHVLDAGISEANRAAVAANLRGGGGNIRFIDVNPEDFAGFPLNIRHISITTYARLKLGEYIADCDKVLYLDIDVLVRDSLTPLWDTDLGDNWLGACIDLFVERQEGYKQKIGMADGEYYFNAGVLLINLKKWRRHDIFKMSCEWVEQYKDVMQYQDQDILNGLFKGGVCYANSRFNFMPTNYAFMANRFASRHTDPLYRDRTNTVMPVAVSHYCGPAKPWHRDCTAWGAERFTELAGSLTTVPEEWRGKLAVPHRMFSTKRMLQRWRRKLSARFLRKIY

[2] = target: Intestinal-type alkaline phosphatase (Bos taurus) (UniProt P19111); test: Inhibition of calf intestinal phosphatase up to 100 uM using UDP as substrate measured after 20 mins by malachite green reagent based colorimetric method
Chain of Intestinal-type alkaline phosphatase (Bos taurus) (P19111 20-506 limits assumed): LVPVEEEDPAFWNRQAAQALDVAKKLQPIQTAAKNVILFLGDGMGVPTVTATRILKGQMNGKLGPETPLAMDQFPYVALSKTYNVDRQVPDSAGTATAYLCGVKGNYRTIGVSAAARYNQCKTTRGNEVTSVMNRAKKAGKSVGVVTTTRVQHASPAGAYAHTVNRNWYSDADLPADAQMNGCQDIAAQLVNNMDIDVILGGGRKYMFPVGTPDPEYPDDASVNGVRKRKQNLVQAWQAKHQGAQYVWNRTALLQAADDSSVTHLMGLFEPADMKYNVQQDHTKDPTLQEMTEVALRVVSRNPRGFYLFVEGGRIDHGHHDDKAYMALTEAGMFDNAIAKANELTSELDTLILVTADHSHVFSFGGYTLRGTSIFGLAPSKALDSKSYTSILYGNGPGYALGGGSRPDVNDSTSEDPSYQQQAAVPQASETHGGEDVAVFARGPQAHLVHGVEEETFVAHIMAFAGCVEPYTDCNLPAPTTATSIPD

[3] = Effect on inorganic phosphate reaction with malachite green reagent at 1 mM after 20 mins by colorimetric method; assay type: functional
[4] = target: T1, LgtC (Neisseria meningitidis); test: (§1) Inhibition of Neisseria meningitidis LgtC using UDP-Gal donor substrate incubated for 20 mins by malachite green reagent based colorimetric method
LgtC = target: T2, LgtC (Neisseria meningitidis, UniProt Q93EK7); test: as §1
T2 sequence (Q93EK7 whole entry): T1 sequence (whole entry)

[5] = target: T3, Galactoside alpha-(1,2)-fucosyltransferase 2 (Homo sapiens) (UniProt Q10981); test: Inhibition of recombinant human C-terminal His6-tagged FUT2 (Ile35 to His343 residues) expressed in HEK293 cells at 100 uM using GDP-Fuc donor substrate measured after 20 mins by malachite green reagent based colorimetric method; assay type: cell-based
T3 sequence (whole entry): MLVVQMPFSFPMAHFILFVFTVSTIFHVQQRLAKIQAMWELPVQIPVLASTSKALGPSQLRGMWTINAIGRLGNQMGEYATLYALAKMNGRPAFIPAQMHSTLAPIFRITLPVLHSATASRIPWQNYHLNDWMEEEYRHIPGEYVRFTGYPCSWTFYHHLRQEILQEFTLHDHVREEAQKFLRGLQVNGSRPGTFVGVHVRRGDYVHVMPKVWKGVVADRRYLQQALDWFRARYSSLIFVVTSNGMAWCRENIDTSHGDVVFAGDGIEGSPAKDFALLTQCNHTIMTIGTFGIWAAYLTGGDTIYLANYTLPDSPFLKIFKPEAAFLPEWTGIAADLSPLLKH

[6] = Effect on inorganic phosphate reaction with malachite green reagent up to 100 uM after 20 mins by colorimetric method; assay type: functional
Pasteurella multocida = test: Inhibition of recombinant Pasteurella multocida alpha-(2,3)-sialyltransferase expressed in Escherichia coli BL21 up to 100 uM using CMP-Neu5Ac donor substrate incubated for 20 mins by malachite reagent based colorimetric method
[7] = target: T1, LgtC (Neisseria meningitidis); test: Inhibition of Neisseria meningitidis LgtC at 100 uM using UDP-Gal donor substrate incubated for 20 mins followed by 5 fold dilution by malachite green reagent based colorimetric method relative to control
[8] = target: T1, LgtC (Neisseria meningitidis); test: Inhibition of Neisseria meningitidis LgtC at 100 uM using UDP-Gal donor substrate incubated for 20 mins by malachite green reagent based colorimetric method relative to control

| SMILES | inhibition [1] | other results |
| --- | --- | --- |
| CCOC(=O)c1cccc(N2N=C(C)/C(=C/C3CCN(C(=O)OC(C)(C)C)CC3)C2=O)c1 | inactive | – |
| CC1=NN(c2ccccc2)C(=O)/C1=C\c1ccc(O)cc1 | inactive | – |
| CC(=O)O[C@H]1C[C@@H]2CC[C@@H]3[C@H](CC[C@@]4(C)[C@H]3C[C@H]([N+]3(C)CCCCC3)[C@@H]4OC(C)=O)[C@@]2(C)C[C@@H]1[N+]1(C)CCCCC1 | 38% | inhibition [2]: Active; Activity [3]: Active; inhibition [4]: Dose-dependent effect |
| CC1=NN(c2ccccc2)C(=O)/C1=C\c1cccc([N+](=O)[O-])c1 | inactive | – |
| CC1=NN(c2ccccc2)C(=O)/C1=C\c1cccc(O)c1 | inactive | – |
| CC1=NN(c2ccccc2)C(=O)/C1=C\c1ccccc1C | > 10% | inhibition [2]: inactive; inhibition [4]: Dose-dependent effect; pIC50 (LgtC): 4.52; inhibition [5]: Active; Activity [6]: inactive; inhibition (Pasteurella multocida): inactive |
| CC1=NN(c2ccccc2)C(=O)/C1=C\c1ccc(Cl)cc1 | inactive | – |
| COc1cc(/C=C2\C(=O)N(c3cccc(C(=O)O)c3)N=C2C)cc(OC)c1O | inactive | – |
| CC(=O)O[C@H]1C[C@@H]2CC[C@@H]3[C@H](CC[C@@]4(C)[C@H]3C[C@H]([N+]3(C)CCCCC3)[C@@H]4OC(C)=O)[C@@]2(C)C[C@@H]1N1CCCCC1 | 34% | inhibition [2]: Active; Activity [3]: Active; inhibition [4]: Dose-dependent effect |
| CC1=NN(c2ccccc2)C(=O)/C1=C\c1cccc(C)c1 | inactive | – |
| CC1=NN(c2ccccc2)C(=O)/C1=C\c1ccccc1C(F)(F)F | – | inhibition [7]: 60%; inhibition [8]: 60% |
| CC1=NN(c2ccccc2)C(=O)/C1=C\c1ccccc1Cl | > 10% | pIC50 (LgtC): 4.48 |
| CC1=NN(c2ccccc2)C(=O)/C1=C\c1ccc(C#N)cc1 | inactive | – |
| CC1=NN(c2ccccc2)C(=O)/C1=C\c1ccccc1O | 10% | – |
| CC1=NN(c2ccccc2)C(=O)/C1=C\c1ccncc1 | inactive | – |
| CC1=NN(c2ccccc2)C(=O)/C1=C\c1ccc(C)cc1 | inactive | – |
| CCOC(=O)c1cccc(N2N=C(C)/C(=C/c3ccncc3)C2=O)c1 | inactive | – |
| CC1=NN(c2ccccc2)C(=O)/C1=C\c1cc(C(F)(F)F)ccc1C(F)(F)F | inactive | – |
| CC1=NN(c2ccccc2)C(=O)/C1=C\c1ccco1 | inactive | – |
| CC1=NN(c2ccccc2)C(=O)/C1=C\c1ccc(S(C)(=O)=O)cc1 | inactive | – |
| CC1=NN(c2ccccc2)C(=O)/C1=C\c1cccc(OCc2ccccc2)c1 | inactive | – |
| COc1ccc2occ(/C=C3\C(=O)N(c4cccc(C(=O)O)c4)N=C3C)c(=O)c2c1 | inactive | – |
| CC1=NN(c2ccccc2)C(=O)/C1=C\c1cccnc1 | inactive | – |

Reference: ChEMBL document CHEMBL4257475, “Identification of non-substrate-like glycosyltransferase inhibitors from library screening: pitfalls & hits” (Medchemcomm, 2018)
